Paper PMC10398712 (Journal of medicinal chemistry, 2023)
Read-outs that look alike come from different tables or passages of the source. Marks after values point to notes of the source that are not given here. Residues, ends and D or L forms follow the SMILES beside them. *: point of attachment. Cbz = O=C(OCc1ccccc1)*

How the values were obtained:
CRBN = details: cited from earlier work
[1] = cited from earlier work
CRBN-DDB1 complex = CRBN-DDB1 complex (Homo sapiens, UniProt Q96SW2); test: fluorescence polarization; format: binding; details: for displacement of fluorescence probe (relative binding): single concentration of 1 μM, tested three times
IKZF3 = test: Western blot of IKZF3 in MV4; format: cell-based, human; details: MV4;11 cells, 10 and 1 μM, 24 h
[2] = ring opening hydrolysis stability in buffer with different pHs; format: physicochemical; details: for pH=1.0, ring opening hydrolysis, percent compound remaining: pH 1.0, after 24 h; for pH=7.4, ring opening hydrolysis, percent compound remaining: pH 7.4 buffer, after 24 h, 37°C
GSPT1 = test: Western blot of GSPT1 in MV4; format: cell-based, human; details: MV4;11 cells, 10 and 1 μM, 24 h
IKZF1 = test: Western blot of IKZF1 in MV4; format: cell-based, human; details: MV4;11 cells, 10 and 1 μM, 24 h
MV4;11 cells [3] = test: AlamarBlue cell viability; format: cell-based, human; details: 72 h
BRD4 = BRD4 (Homo sapiens, UniProt O60885); test: Western blot of BRD4; details: for effect of pretreatment on BRD4 degradation induced by 13: pretreated 1 h, then 13 for 3 h; for degradation of BRD4: 24 h
MV4;11 cells [4] = test: flow cytofluorimetric apoptosis analysis; format: cell-based, human; details: 48 h
caspase 3 cleavage = test: Western blot of caspase 3 and cleaved caspase 3 in MV4; details: MV4;11 cells, 10 nM to 10 μM, 24 h
MV4;11 cells [5] = test: flow cytofluorimetric cell cycle analysis; format: cell-based, human; details: 48 h
[6] = in human blood; cited from earlier work
[7] = in-vivo in humans; cited from earlier work

Sequence of CRBN-DDB1 complex (Q96SW2 whole entry): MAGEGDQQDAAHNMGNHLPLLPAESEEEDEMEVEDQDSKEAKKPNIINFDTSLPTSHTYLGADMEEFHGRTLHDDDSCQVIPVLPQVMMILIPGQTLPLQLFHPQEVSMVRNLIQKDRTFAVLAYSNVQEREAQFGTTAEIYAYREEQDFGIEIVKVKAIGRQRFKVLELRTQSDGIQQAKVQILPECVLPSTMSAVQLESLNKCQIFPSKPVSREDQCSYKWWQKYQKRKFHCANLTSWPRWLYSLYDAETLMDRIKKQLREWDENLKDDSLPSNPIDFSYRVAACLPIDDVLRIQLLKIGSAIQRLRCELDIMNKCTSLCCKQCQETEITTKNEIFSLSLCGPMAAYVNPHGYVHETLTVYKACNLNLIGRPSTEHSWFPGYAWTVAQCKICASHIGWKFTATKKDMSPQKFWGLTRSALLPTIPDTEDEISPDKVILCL
Sequence of CRBN-DDB1 complex (Q16531 whole entry partner): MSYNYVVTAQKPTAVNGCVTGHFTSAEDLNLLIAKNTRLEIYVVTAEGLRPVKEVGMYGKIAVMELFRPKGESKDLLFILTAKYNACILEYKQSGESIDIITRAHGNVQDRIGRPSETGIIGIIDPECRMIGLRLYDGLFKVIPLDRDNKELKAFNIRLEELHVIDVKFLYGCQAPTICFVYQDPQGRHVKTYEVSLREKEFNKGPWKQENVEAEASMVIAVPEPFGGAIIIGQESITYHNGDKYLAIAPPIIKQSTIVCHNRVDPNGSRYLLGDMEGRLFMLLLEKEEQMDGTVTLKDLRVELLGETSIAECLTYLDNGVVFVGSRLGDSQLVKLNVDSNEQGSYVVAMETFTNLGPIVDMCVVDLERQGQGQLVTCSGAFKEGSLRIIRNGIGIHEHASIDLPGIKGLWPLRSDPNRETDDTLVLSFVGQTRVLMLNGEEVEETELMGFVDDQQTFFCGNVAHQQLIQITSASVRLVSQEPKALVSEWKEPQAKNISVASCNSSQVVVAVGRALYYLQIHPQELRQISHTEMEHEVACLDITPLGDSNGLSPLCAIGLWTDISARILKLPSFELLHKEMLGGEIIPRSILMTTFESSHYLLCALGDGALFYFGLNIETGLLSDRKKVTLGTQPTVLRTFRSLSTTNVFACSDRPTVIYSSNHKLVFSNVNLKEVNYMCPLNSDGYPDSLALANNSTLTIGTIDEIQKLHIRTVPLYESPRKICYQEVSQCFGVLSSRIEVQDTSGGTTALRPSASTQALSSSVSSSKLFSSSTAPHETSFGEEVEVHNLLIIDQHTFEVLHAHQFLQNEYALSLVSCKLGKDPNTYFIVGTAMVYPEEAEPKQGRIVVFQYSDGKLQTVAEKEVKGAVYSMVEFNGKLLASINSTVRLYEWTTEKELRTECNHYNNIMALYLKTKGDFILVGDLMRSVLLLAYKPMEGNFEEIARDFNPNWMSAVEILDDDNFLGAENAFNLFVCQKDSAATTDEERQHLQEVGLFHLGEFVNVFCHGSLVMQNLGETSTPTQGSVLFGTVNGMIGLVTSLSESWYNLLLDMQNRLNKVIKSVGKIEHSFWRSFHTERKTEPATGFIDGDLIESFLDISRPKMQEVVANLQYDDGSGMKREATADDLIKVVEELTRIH

## O=C1CC[C@H](N2C(=O)c3ccccc3C2=O)C(=O)N1 (single isomer, unassigned) [(S)-enantiomeric thalidomide]
CRBN
  binding affinity to CRBN relative to the (R)-enantiomer: at least 10 fold

## [2H]C1(N2C(=O)c3ccccc3C2=O)CCC(=O)NC1=O (stereo not drawn) [Compound 1D]
[1]
  racemization relative to thalidomide: about five times slower than thalidomide

## O=C1CCN(c2ccccc2O)C(=O)N1 [Compound 3A, 1-(2-hydroxyphenyl)dihydropyrimidine-2,4(1H,3H)-dione]
CRBN-DDB1 complex
  displacement of fluorescence probe (relative binding): almost completely lost the binding

## Cc1ccccc1N1CCC(=O)NC1=O [Compound 3B, 1-(o-tolyl)dihydropyrimidine-2,4(1H,3H)-dione]
CRBN-DDB1 complex; FP assay
  increase of affinity by ortho-Me relative to parent PDHU 2: about 2.5 times

## COc1ccccc1N1CCC(=O)NC1=O [Compound 3C, 1-(2-methoxyphenyl)dihydropyrimidine-2,4(1H,3H)-dione]
CRBN-DDB1 complex
  displacement of fluorescence probe (relative binding): decreased the binding

## Cc1c(C#CCNC(=O)OC(C)(C)C)cccc1N1CCC(=O)NC1=O [Compound 6F, tert-butyl (3-(3-(2,4-dioxotetrahydropyrimidin-1(2H)-yl)-2-methylphenyl)prop-2-yn-1-yl)carbamate]
IKZF3
  degradation of IKZF3: do not induce the degradation
[2]
  pH=1.0, ring opening hydrolysis, percent compound remaining: >99^[g] %
  pH=7.4, ring opening hydrolysis, percent compound remaining: >99%
GSPT1
  degradation of GSPT1: do not induce the degradation
IKZF1
  degradation of IKZF1: do not induce the degradation

## Cc1c(OCC(=O)N2CCCCC2)cccc1N1CCC(=O)NC1=O [Compound 9, 1-(2-methyl-3-(2-oxo-2-(piperidin-1-yl)ethoxy)phenyl)dihydropyrimidine-2,4(1H,3H)-dione]
MV4;11 cells [3]; at up to 100 μM
  anti-proliferation activity: did not show any anti-proliferation activity
IKZF3
  degradation of IKZF3: do not induce the degradation
[2]
  pH=1.0, ring opening hydrolysis, percent compound remaining: >99%
  pH=7.4, ring opening hydrolysis, percent compound remaining: >99%
BRD4; MV4;11 cells
  effect of pretreatment on BRD4 degradation induced by 13: abolished the BRD4 degradation induced by 13
GSPT1
  degradation of GSPT1: do not induce the degradation
IKZF1
  degradation of IKZF1: do not induce the degradation

## CCNC(=O)COc1cccc(N2CCC(=O)NC2=O)c1C [Compound 10, 2-(3-(2,4-dioxotetrahydropyrimidin-1(2H)-yl)-2-methylphenoxy)-N-ethylacetamide]
IKZF3
  degradation of IKZF3: do not induce the degradation
[2]
  pH=1.0, ring opening hydrolysis, percent compound remaining: >99%
  pH=7.4, ring opening hydrolysis, percent compound remaining: >99%
GSPT1
  degradation of GSPT1: do not induce the degradation
IKZF1
  degradation of IKZF1: do not induce the degradation

## CC(=O)NCCC#Cc1cccc(N2CCC(=O)NC2=O)c1C [Compound 11, N-(4-(3-(2,4-dioxotetrahydropyrimidin-1(2H)-yl)-2-methylphenyl)but-3-yn-1-yl)acetamide]
IKZF3
  degradation of IKZF3: do not induce the degradation
[2]
  pH=1.0, ring opening hydrolysis, percent compound remaining: >99%
  pH=7.4, ring opening hydrolysis, percent compound remaining: >99%
GSPT1
  degradation of GSPT1: do not induce the degradation
IKZF1
  degradation of IKZF1: do not induce the degradation

## Cc1sc2c(c1C)C(c1ccc(Cl)cc1)=N[C@@H](CC(=O)NCCCC#Cc1cccc(N3CCC(=O)NC3=O)c1C)c1nnc(C)n1-2 [Compound 12C, (S)-2-(4-(4-chlorophenyl)-2,3,9-trimethyl-6H-thieno[3,2-f][1,2,4]triazolo[4,3-a][1,4]diazepin-6-yl)-N-(5-(3-(2,4-dioxotetrahydropyrimidin-1(2H)-yl)-2-methylphenyl)pent-4-yn-1-yl)acetamide]
BRD4; in MV4;11 and LNCAP, 1.0 and 0.1 μM
  degradation of BRD4: showed obviously BRD4 degradation activity

## Cc1sc2c(c1C)C(c1ccc(Cl)cc1)=N[C@@H](CC(=O)NC1CCN(C(=O)COc3cccc(N4CCC(=O)NC4=O)c3C)CC1)c1nnc(C)n1-2 [Compound 13, (S)-2-(4-(4-chlorophenyl)-2,3,9-trimethyl-6H-thieno[3,2-f][1,2,4]triazolo[4,3-a][1,4]diazepin-6-yl)-N-(1-(2-(3-(2,4-dioxotetrahydropyrimidin-1(2H)-yl)-2-methylphenoxy)acetyl)piperidin-4-yl)acetamide]
MV4;11 cells [4]
  cell apoptosis: induced cell apoptosis in a dose-dependent manner
Caspase 3 cleavage
  caspase 3 cleavage: successful in inducing caspase 3 cleavage
MV4;11 cells [5]
  cell cycle effect: induce G1 phase arrest, decrease the cell population in S phase

## Cc1sc2c(c1C)C(c1ccc(Cl)cc1)=N[C@@H](CC(=O)NC1CCN(C(=O)COc3cccc(N4CCC(=O)N(C)C4=O)c3C)CC1)c1nnc(C)n1-2 [Compound 13NT, (S)-2-(4-(4-chlorophenyl)-2,3,9-trimethyl-6H-thieno[3,2-f][1,2,4]triazolo[4,3-a][1,4]diazepin-6-yl)-N-(1-(2-(2-methyl-3-(3-methyl-2,4-dioxotetrahydropyrimidin-1(2H)-yl)phenoxy)acetyl)piperidin-4-yl)acetamide]
BRD4; MV4;11 cells, several different concentrations
  degradation of BRD4: no degradation activity of BRD4 was observed

## Cc1sc2c(c1C)C(c1ccc(Cl)cc1)=N[C@@H](CC(=O)OC(C)(C)C)c1nnc(C)n1-2 [JQ1, reference compound]
MV4;11 cells [3]
  anti-proliferation activity: weaker anti-proliferation activity than 13, but higher activity than compound 13NT

## Nc1cccc2c1CN(C1CCC(=O)NC1=O)C2=O (stereo not drawn) [Lenalidomide, lenalidomide, reference compound]
[2]
  pH=1.0, ring opening hydrolysis, percent compound remaining: >99%
[2]; pH 8.8, after 24 h
  pH=8.8, ring opening hydrolysis, percent compound remaining: 0%

## CC(C)C[C@@H](C=O)NC(=O)[C@H](CC(C)C)NC(=O)[C@H](CC(C)C)NC(=O)OCc1ccccc1 [MG132, reference compound] (Cbz-Leu-Leu-Leu-aldehyde)
BRD4; MV4;11 cells
  effect of pretreatment on BRD4 degradation induced by 13: abolished the BRD4 degradation induced by 13

## NS(=O)(=O)OC[C@@H]1C[C@@H](n2ccc3c(N[C@H]4CCc5ccccc54)ncnc32)C[C@@H]1O [MLN4924, reference compound]
BRD4; MV4;11 cells
  effect of pretreatment on BRD4 degradation induced by 13: abolished the BRD4 degradation induced by 13

## O=C1CCC(N2C(=O)c3ccccc3C2=O)C(=O)N1 (stereo not drawn) [thalidomide]
[6]
  racemization half-life: ~ 2.0 h
[7]
  racemization half-life: ~ 5.0 h
